From patent US20250320206A1, “STAT6 DEGRADERS” (Gilead Sciences, Inc., priority 2024, published 2025)

What was measured:
[1] = target: T1, STAT6 (Homo sapiens, UniProt P42226); experiment: Stat6 Degrader Assay (HiBiT based, HeLa LgBiT clone 4.14); type: cell-based; conditions: HeLa LgBiT clone 4.14 HiBiT-STAT6, 4-24 h incubation; values given for compounds with >80% Emax; geometric mean; read-out: STAT6 degradation DC50
T1 construct: These cells express endogenous STAT6; host or cells: HeLa LgBiT clone 4.14
T1 sequence (P42226 1-847): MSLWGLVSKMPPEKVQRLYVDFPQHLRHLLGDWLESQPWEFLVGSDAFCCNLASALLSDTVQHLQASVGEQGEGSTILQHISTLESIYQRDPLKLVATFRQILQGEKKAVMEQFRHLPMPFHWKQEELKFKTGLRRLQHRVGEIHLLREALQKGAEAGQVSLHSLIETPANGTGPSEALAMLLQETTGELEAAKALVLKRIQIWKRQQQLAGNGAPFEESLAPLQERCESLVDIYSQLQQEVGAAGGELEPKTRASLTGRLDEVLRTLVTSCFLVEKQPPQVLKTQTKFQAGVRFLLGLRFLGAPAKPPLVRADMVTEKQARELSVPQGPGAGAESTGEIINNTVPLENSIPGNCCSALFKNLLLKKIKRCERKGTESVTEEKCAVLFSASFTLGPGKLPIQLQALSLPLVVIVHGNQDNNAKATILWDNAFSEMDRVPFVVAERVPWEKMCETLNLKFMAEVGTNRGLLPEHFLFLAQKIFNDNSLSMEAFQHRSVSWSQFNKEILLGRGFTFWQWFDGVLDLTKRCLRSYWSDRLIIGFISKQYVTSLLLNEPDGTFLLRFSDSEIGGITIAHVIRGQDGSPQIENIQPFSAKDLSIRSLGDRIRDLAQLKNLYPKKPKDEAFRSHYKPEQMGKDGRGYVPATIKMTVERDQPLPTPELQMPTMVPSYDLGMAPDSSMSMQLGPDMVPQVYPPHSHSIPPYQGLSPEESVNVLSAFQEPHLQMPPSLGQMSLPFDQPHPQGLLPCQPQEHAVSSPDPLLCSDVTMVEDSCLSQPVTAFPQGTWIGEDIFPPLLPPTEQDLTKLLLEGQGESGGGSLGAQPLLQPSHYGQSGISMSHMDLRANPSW
How it was run: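 Luminescence from HiBiT-STAT6 complementing stably expressed LgBiT in HeLa clone 4.14 reports remaining STAT6 protein. Cells (5000/well) exposed to compound for 4-24 h at 37° C; read 0.5 h after Nano-Glo addition. 100% degradation window set with 50 μM terfenadine; percent degradation plotted against concentration.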

[2] = system: Eotaxin-3 release in human whole blood stimulated with IL-4; experiment: Human Whole Blood Eotaxin-3 Assay (IL-4 stimulated eotaxin-3 release); type: cell-based; conditions: IL-4 stimulation, 48 h, values given for compounds with >80% Emax, geometric mean
Experimental: Human Whole Blood Eotaxin-3 Assay
This was a human whole blood assay using recombinant human Interleukin 4 to stimulate the blood and measuring the ability of the test compounds to inhibit eotaxin-3 release. The biological activities of the test compounds have been tested in human whole blood stimulated with IL-4 measuring Eotaxin-3 release. The test compounds were added to 384 well clear flat-bottom plate in a 4-fold serial dilution in triplicates using a liquid handler. Human whole blood stabilized in lithium-heparin tubes was added in a volume of 65 μL per well, resulting in a final DMSO concentration of 0.5%. The plate is incubated for 2 h at 37° C. under 5% CO2/95% air. Subsequently, 5 μL of recombinant human IL-4 (R&D Systems, cat #204-ILB) was added to the wells to a final concentration of […]. The plate was incubated for 48 h at 37° C. under 5% CO2/95% air. The plate was spun down for 10 minutes at 500×g and 20 μL supernatant was harvested and transferred to a 384 well v-bottom plate using a liquid handler and stored at −20° C. until further analysis. 10 μL supernatant was used to measure the level of Eotaxin-3 (CCL26) using Human Eotaxin-3 MSD kit from Mesocsale (Cat #K251UEK-4). The assay was performed according to the manufacture instructions.
The data from the human whole blood eotaxin-3 assay is shown in FIG. 2 for Examples 3u208, 3u246, 3u118, 3u119, 3u120, and 3u74 (where the effect in % is plotted against the test concentration in M on a log scale).

In the case of `CNc1cc(=O)n(-c2ccnc3c2cc(CN2CCC(c4c(F)cc(C(=O)N5CCC(CN6CCN(Cc7ccc8c(c7)n(C)c(=O)n8[C@H]7CCC(=O)NC7=O)CC6)CC5)cc4F)CC2)n3C)cc1F` (single isomer, unassigned) [Example 3u27], the DC50 [1] is reported as 2 nM and the EC50 [2] is reported as 5.7 nM.
`CNc1ccn(-c2ccnc3c2cc(CN2CCC(c4c(F)cc(C(=O)N5CCC(CN6CCN(Cc7ccc8c(c7)C7(CC7)C(=O)N8C7CCC(=O)NC7=O)C[C@@H]6C)CC5)cc4F)CC2)n3C)c(=O)n1` (stereo partly drawn) [Example 3h12, 3-(5′-(((S)-4-((1-(3,5-difluoro-4-(1-((1-methyl-4-(4-(methylamino)-2-oxopyrimidin-1 (2H)-yl)-1H-pyrrolo[2,3-b]pyridin-2-yl)methyl)piperidin-4-yl)benzoyl)piperidin-4-yl)methyl)-3-methylpiperazin-1-yl)methyl)-2′-oxospiro[cyclopropane-1,3′-indolin]-1′-yl)piperidine-2,6-dione] showed a DC50 [1] of 3.2 nM and an EC50 [2] of 1.3 nM.
In the case of `CNc1cc(=O)n(-c2ccnc3c2cc([C@H](C)N2CC=C(c4c(C)cc(C(=O)N(C)c5ccc(C6CCN(Cc7ccc8c(c7)C7(CC7)C(=O)N8C7CCC(=O)NC7=O)CC6)cc5)cc4F)CC2)n3C)cc1F` (stereo partly drawn) [Example 3u236, N-(4-(1-((1′-(2,6-dioxopiperidin-3-yl)-2′-oxospiro[cyclopropane-1,3′-indolin]-5′-yl)methyl)piperidin-4-yl)phenyl)-3-fluoro-4-(1-((S)-1-(4-(5-fluoro-4-(methylamino)-2-oxopyridin-1 (2H)-yl)-1-methyl-1H-pyrrolo[2,3-b]pyridin-2-yl)ethyl)-1,2,3,6-tetrahydropyridin-4-yl)-N,5-dimethylbenzamide], the DC50 [1] is reported as 0.1 nM and the EC50 [2] is reported as 0.9 nM.
For `CNc1ccn(-c2ccnc3c2cc([C@H](C)N2CC=C(c4c(C)cc(C(=O)N(C)c5ccc(C6CCN(Cc7ccc8c(c7)n(C)c(=O)n8C7CCC(=O)NC7=O)CC6)nc5)cc4F)CC2)n3C)c(=O)c1` (stereo partly drawn) [Example 3u231, N-(6-(1-((1-(2,6-dioxopiperidin-3-yl)-3-methyl-2-oxo-2,3-dihydro-1H-benzo[d]-imidazol-5-yl)methyl)piperidin-4-yl)pyridin-3-yl)-3-fluoro-N,5-dimethyl-4-(1-((S)-1-(1-methyl-4-(4-(methylamino)-2-oxopyridin-1 (2H)-yl)-1H-pyrrolo[2,3-b]pyridin-2-yl)ethyl)-1,2,3,6-tetrahydropyridin-4-yl)benzamide], the DC50 [1] was 0.1 nM and the EC50 [2] was 0.8 nM.
Compound `CNc1ccn(-c2ccnc3c2cc([C@H](C)N2CC=C(c4c(C)cc(C(=O)N(C)c5ccc(C6CCN(Cc7ccc8c(c7)n(C)c(=O)n8[C@H]7CCC(=O)NC7=O)CC6)cc5)cc4F)CC2)n3C)c(=O)c1` (single isomer, unassigned) [Example 3u226] has a DC50 [1] of 0.05 nM and an EC50 [2] of 0.2 nM.
Work on `C[C@H]1CN(Cc2ccc3c(c2)C(C)(C)C(=O)N3C2CCC(=O)NC2=O)CCN1CC1CCN(C(=O)c2cc(F)c(C3CCN(Cc4cc5c(-n6ccc7c(c6=O)CCN7)ccnc5n4C)CC3)c(F)c2)CC1` (stereo partly drawn) [Example 3u86, 3-(5-(((S)-4-((1-(3,5-difluoro-4-(1-((1-methyl-4-(4-oxo-1,2,3,4-tetrahydro-5H-pyrrolo[3,2-c]pyridin-5-yl)-1H-pyrrolo[2,3-b]pyridin-2-yl)methyl)piperidin-4-yl)benzoyl)piperidin-4-yl)methyl)-3-methylpiperazin-1-yl)methyl)-3,3-dimethyl-2-oxoindolin-1-yl)piperidine-2,6-dione] yielded a DC50 [1] of 3.4 nM and an EC50 [2] of 5.1 nM.
`CNc1cc(=O)n(-c2ccnc3c2cc([C@H](C)N2CC=C(c4c(C)cc(C(=O)N5CCC(CN6CCN(Cc7ccc8c(c7)n(C)c(=O)n8[C@@H]7CCC(=O)NC7=O)C[C@@H]6C)CC5)cc4F)CC2)n3C)cc1F` (single isomer, unassigned) [Example 3u92] showed a DC50 [1] of 0.4 nM and an EC50 [2] of 1.8 nM.
With `CNc1ccn(-c2ccnc3c2cc(CN2CCC(c4c(F)cc(C(=O)N5CCC(CN6CCN(Cc7ccc8c(c7)C(C)(C)C(=O)N8[C@@H]7CCC(=O)NC7=O)C[C@@H]6C)CC5)cc4F)CC2)n3C)c(=O)c1` (single isomer, unassigned) [Example 3u206] the DC50 [1] was 0.4 nM and the EC50 [2] was 10.9 nM.
Work on `CNc1cc(=O)n(-c2ccnc3c2cc(CN2CCC(c4c(F)cc(C(=O)N5CCC(CN6CCN(c7ccc8c(c7)C7(CC7)C(=O)N8[C@@H]7CCC(=O)NC7=O)CC6)CC5)cc4F)CC2)n3C)cc1F` (single isomer, unassigned) [Example 3u289] yielded an EC50 [2] of 18.9 nM.
In the case of `CNc1cc(=O)n(-c2ccnc3c2cc([C@H](C)N2CC=C(c4c(C)cc(C(=O)N5CCC(CN6CCN(c7cc8c(cc7F)N(C7CCC(=O)NC7=O)C(=O)C87CC7)CC6)CC5)cc4F)CC2)n3C)cc1F` (stereo partly drawn) [Example 3u305, 3-(6′-fluoro-5′-(4-((1-(3-fluoro-4-(1-((S)-1-(4-(5-fluoro-4-(methylamino)-2-oxopyridin-1 (2H)-yl)-1-methyl-1H-pyrrolo[2,3-b]pyridin-2-yl)ethyl)-1,2,3,6-tetrahydropyridin-4-yl)-5-methylbenzoyl)piperidin-4-yl)methyl)piperazin-1-yl)-2′-oxospiro[cyclopropane-1,3′-indolin]-1′-yl)piperidine-2,6-dione], the EC50 [2] is reported as 24.9 nM.
`C[C@@H](c1cc2c(-n3cc(F)c4c(c3=O)CCN4)ccnc2n1C)N1CC=C(c2c(F)cc(C(=O)N3CCC(CN4CCN(Cc5ccc6c(c5)n(C)c(=O)n6C5CCC(=O)NC5=O)CC4)CC3)cc2F)CC1` (stereo partly drawn) [Example 3u83, 3-(5-((4-((1-(3,5-difluoro-4-(1-((S)-1-(4-(7-fluoro-4-oxo-1,2,3,4-tetrahydro-5H-pyrrolo[3,2-c]pyridin-5-yl)-1-methyl-1H-pyrrolo[2,3-b]pyridin-2-yl)ethyl)-1,2,3,6-tetrahydropyridin-4-yl)benzoyl)piperidin-4-yl)methyl)piperazin-1-yl)methyl)-3-methyl-2-oxo-2,3-dihydro-1H-benzo[d]-imidazol-1-yl)piperidine-2,6-dione] gave an EC50 [2] of 8 nM.
With `CNc1ccn(-c2ccnc3c2cc(CN2CCC(c4c(F)cc(C(=O)N5CCC(CN6CCN(c7ccc8c(c7)C7(CC7)C(=O)N8[C@@H]7CCC(=O)NC7=O)CC6)CC5)cc4F)CC2)n3C)c(=O)c1` (single isomer, unassigned) [Example 3u150] the EC50 [2] was 39.2 nM.
In the case of `CNc1cc(=O)n(-c2ccnc3c2cc([C@H](C)N2CC=C(c4c(C)cc(C(=O)N5CCC(CN6CCN(c7ccc8c(c7)C7(CC7)C(=O)N8[C@H]7CCC(=O)NC7=O)C[C@@H]6C)CC5)cc4F)CC2)n3C)cc1F` (single isomer, unassigned) [Example 3u65], the EC50 [2] is reported as 93.5 nM.
`CNc1ccn(-c2ccnc3c2cc([C@H](C)N2CC=C(c4c(C)cc(C(=O)N5CCC(CN6CCN(c7ccc8c(c7)C(C)(C)C(=O)N8[C@H]7CCC(=O)NC7=O)CC6)CC5)cc4F)CC2)n3C)c(=O)c1` (single isomer, unassigned) [Example 3u280] gave an EC50 [2] of 12.8 nM.
In the case of `C[C@@H](c1cc2c(-n3cc(F)c4c(c3=O)CCN4)ccnc2n1C)N1CC=C(c2c(F)cc(C(=O)N3CCC(CN4CCN(c5cc6c(cc5F)n(C5CCC(=O)NC5=O)c(=O)n6C)CC4)CC3)cc2F)CC1` (stereo partly drawn) [Example 3u269, 3-(5-(4-((1-(3,5-difluoro-4-(1-((S)-1-(4-(7-fluoro-4-oxo-1,2,3,4-tetrahydro-5H-pyrrolo[3,2-c]pyridin-5-yl)-1-methyl-1H-pyrrolo[2,3-b]pyridin-2-yl)ethyl)-1,2,3,6-tetrahydropyridin-4-yl)benzoyl)piperidin-4-yl)methyl)piperazin-1-yl)-6-fluoro-3-methyl-2-oxo-2,3-dihydro-1H-benzo[d]-imidazol-1-yl)piperidine-2,6-dione], the EC50 [2] is reported as 96.3 nM.
